Source: patent publication US20210093679A1, “[…] MICROBES AND USES THEREOF” (priority 2018, published 2021)

Test system: female Balb/cJ mice
Test: Mouse model of xenobiotic metabolism (irinotecan-induced diarrhea)
Conditions: irinotecan 50 mg/kg IP once daily for 10 days
Method: On day one and everyday thereafter for 10 days, female Balb/cJ mice (The Jackson Laboratory, Farmington, Conn.) were administered irinotecan (50 mg/kg) (Selleckchem, Houston, Tex.) via intraperitoneal (IP) injection once daily for the length of the experiment. On day one and every day thereafter for 10 days, mice were also administered streptomycin (5 mg/ml) (Sigma-Aldrich, St. Louis, Mo.) ad libidum via their drinking water in order to kill proteobacteria in the mouse GI tract.
On day two, 0.1 ml of engineered bacteria in PBS at a concentration of 10^10 colony forming units per mL were administered to the mice once via oral gavage.
On days 3, 7, 8, 9, and 10, the presence of the bacteria in the mouse GI tract was confirmed by collecting fecal samples from the mice, and analyzing the fecal samples for the presence of engineered bacteria. The fecal samples were homogenized in PBS, and inoculated onto agar plates containing streptomycin (500 μg/ml). These agar plates inhibited the growth of other bacteria, and only allowed the engineered bacteria to grow. Colonies were quantified and tallied to determine the amount of bacteria that were alive in the mouse GI tract.
Diarrhea indicated whether the xenobiotic metabolism of the irinotecan caused GI toxicity.

## CCc1c2c(nc3ccc(OC(=O)N4CCC(N5CCCCC5)CC4)cc13)-c1cc3c(c(=O)n1C2)COC(=O)[C@]3(O)CC [Irinotecan, irinotecan]
Streptomycin in drinking water, bacteria once via oral gavage on day two, observed days 6 through 10
  Mice with diarrhea/total mice in test group: 9/10
With or without engineered bacteria
  GI toxicity / diarrhea from irinotecan, in words: Nine of the ten mice that did not receive engineered bacteria experienced GI toxicity
